# Data reported in US20100099561A1, “HETEROBICYCLIC ALKYLTHIO-BRIDGED ISOXAZOLINES” (E.I. DU PONT DE NEMOURS AND COMPANY, priority 2008, published 2010).
# Tests used:
# Type in all cases: in vivo
# Conditions in all cases: 21 days, scale 0 to 100
# [1] = tested on: chickweed (Stellaria media); test: Test C preemergence, chickweed
# Excerpt: (§1) Seeds of plant species selected from annual bluegrass (Poa annua), blackgrass (Alopecurus myosuroides), canarygrass (Phalaris minor), gallium, (catchweed bedstraw, Galium aparine), chickweed (Stellaria media), downy bromegrass (Bromus tectorum), field poppy (Papaver rhoeas), field violet (Viola arvensis), green foxtail (Setaria viridis), deadnettle (henbit deadnettle, Lamium amplexicaule), Italian ryegrass (Lolium multiflorum), kochia (Kochia scoparia), lambsquarters (Chenopodium album), oilseed rape (Brassica napus), pigweed (Amaranthus retroflexus), Russian thistle (Salsola kali), spring barley (Hordeum vulgare), spring wheat (Triticum aestivum), wild buckwheat (Polygonum convolvulus), wild mustard (Sinapis arvensis), wild oat (Avena fatua), wild radish (Raphanus raphanistrum), windgrass (Apera spica-venti), winter barley (Hordeum vulgare), and winter wheat (Triticum aestivum) were planted and treated preemergence with test chemicals formulated in a non-phytotoxic solvent mixture which included a surfactant.
# (§2) Treated plants and controls were maintained in a controlled growth environment for 21 days after which time all species were compared to controls and visually evaluated. Plant response ratings, summarized in Table C, are based on a scale of 0 to 100 where 0 is no effect and 100 is complete control. A dash (-) response means no test result.
# kochia (Kochia scoparia) = test: Test C preemergence, kochia
# Excerpt: as §1, §2
# [2] = tested on: oilseed rape (Brassica napus); test: Test C preemergence, oilseed rape
# Excerpt: as §1, §2
# [3] = tested on: deadnettle (henbit deadnettle, Lamium amplexicaule); test: Test C preemergence, deadnettle
# Excerpt: as §1, §2
# [4] = tested on: gallium, (catchweed bedstraw, Galium aparine); test: Test C preemergence, galium
# Excerpt: as §1, §2
# [5] = tested on: spring wheat (Triticum aestivum); test: Test C preemergence, spring wheat
# Excerpt: as §1, §2
# [6] = tested on: wild radish (Raphanus raphanistrum); test: Test C preemergence, wild radish
# Excerpt: as §1, §2
# [7] = tested on: wild mustard (Sinapis arvensis); test: Test C preemergence, wild mustard
# Excerpt: as §1, §2
# [8] = tested on: blackgrass (Alopecurus myosuroides); test: Test C preemergence, blackgrass
# Excerpt: as §1, §2
# [9] = tested on: winter barley (Hordeum vulgare); test: Test C preemergence, winter barley
# Excerpt: as §1, §2
# [10] = tested on: pigweed (Amaranthus retroflexus); test: Test C preemergence, pigweed
# Excerpt: as §1, §2
# [11] = tested on: winter wheat (Triticum aestivum); test: Test C preemergence, winter wheat
# Excerpt: as §1, §2
# [12] = tested on: annual bluegrass (Poa annua); test: Test C preemergence, annual bluegrass
# Excerpt: as §1, §2
# [13] = tested on: lambsquarters (Chenopodium album); test: Test C preemergence, lambsquarters
# Excerpt: as §1, §2
# [14] = tested on: wild buckwheat (Polygonum convolvulus); test: Test C preemergence, wild buckwheat
# Excerpt: as §1, §2
# [15] = tested on: field violet (Viola arvensis); test: Test C preemergence, field violet
# Excerpt: as §1, §2
# [16] = tested on: green foxtail (Setaria viridis); test: Test C preemergence, green foxtail
# Excerpt: as §1, §2
structure (smiles),measurement,setting,value
CC1(C)CC(S(=O)(=O)Cc2c(C(F)(F)F)nc3n(c2=O)CCS3)=NO1 [Compound 6],"Plant response rating, Chickweed",[1]; 31 g ai/ha,0
same,"Plant response rating, Chickweed",[1]; 62 g ai/ha,0
same,"Plant response rating, Chickweed",[1]; 125 g ai/ha,0
same,"Plant response rating, Chickweed",[1]; 250 g ai/ha,50
same,"Plant response rating, Kochia",kochia (Kochia scoparia); 31 g ai/ha,0
same,"Plant response rating, Kochia",kochia (Kochia scoparia); 62 g ai/ha,0
same,"Plant response rating, Kochia",kochia (Kochia scoparia); 125 g ai/ha,0
same,"Plant response rating, Kochia",kochia (Kochia scoparia); 250 g ai/ha,0
same,"Plant response rating, Oilseed Rape",[2]; 31 g ai/ha,0
same,"Plant response rating, Oilseed Rape",[2]; 62 g ai/ha,0
same,"Plant response rating, Oilseed Rape",[2]; 125 g ai/ha,0
same,"Plant response rating, Oilseed Rape",[2]; 250 g ai/ha,0
same,"Plant response rating, Deadnettle",[3]; 31 g ai/ha,0
same,"Plant response rating, Deadnettle",[3]; 62 g ai/ha,0
same,"Plant response rating, Deadnettle",[3]; 125 g ai/ha,0
same,"Plant response rating, Deadnettle",[3]; 250 g ai/ha,0
same,"Plant response rating, Galium",[4]; 31 g ai/ha,0
same,"Plant response rating, Galium",[4]; 62 g ai/ha,0
same,"Plant response rating, Galium",[4]; 125 g ai/ha,0
same,"Plant response rating, Galium",[4]; 250 g ai/ha,0
same,"Plant response rating, Wheat, Spring",[5]; 31 g ai/ha,0
same,"Plant response rating, Wheat, Spring",[5]; 62 g ai/ha,0
same,"Plant response rating, Wheat, Spring",[5]; 125 g ai/ha,0
same,"Plant response rating, Wheat, Spring",[5]; 250 g ai/ha,15
same,"Plant response rating, Radish, Wild",[6]; 31 g ai/ha,0
same,"Plant response rating, Radish, Wild",[6]; 62 g ai/ha,0
same,"Plant response rating, Radish, Wild",[6]; 125 g ai/ha,0
same,"Plant response rating, Radish, Wild",[6]; 250 g ai/ha,0
same,"Plant response rating, Mustard, Wild",[7]; 31 g ai/ha,0
same,"Plant response rating, Mustard, Wild",[7]; 62 g ai/ha,0
same,"Plant response rating, Mustard, Wild",[7]; 125 g ai/ha,0
same,"Plant response rating, Mustard, Wild",[7]; 250 g ai/ha,0
same,"Plant response rating, Blackgrass",[8]; 125 g ai/ha,98
same,"Plant response rating, Barley, Winter",[9]; 31 g ai/ha,0
same,"Plant response rating, Barley, Winter",[9]; 62 g ai/ha,0
same,"Plant response rating, Barley, Winter",[9]; 125 g ai/ha,15
same,"Plant response rating, Barley, Winter",[9]; 250 g ai/ha,20
same,"Plant response rating, Pigweed",[10]; 31 g ai/ha,0
same,"Plant response rating, Pigweed",[10]; 62 g ai/ha,0
same,"Plant response rating, Pigweed",[10]; 125 g ai/ha,0
same,"Plant response rating, Pigweed",[10]; 250 g ai/ha,100
same,"Plant response rating, Wheat, Winter",[11]; 31 g ai/ha,0
same,"Plant response rating, Wheat, Winter",[11]; 62 g ai/ha,0
same,"Plant response rating, Wheat, Winter",[11]; 125 g ai/ha,0
same,"Plant response rating, Wheat, Winter",[11]; 250 g ai/ha,20
same,"Plant response rating, Bluegrass",[12]; 31 g ai/ha,20
same,"Plant response rating, Bluegrass",[12]; 62 g ai/ha,20
same,"Plant response rating, Bluegrass",[12]; 125 g ai/ha,20
same,"Plant response rating, Bluegrass",[12]; 250 g ai/ha,90
same,"Plant response rating, Lambsquarters",[13]; 31 g ai/ha,0
same,"Plant response rating, Lambsquarters",[13]; 62 g ai/ha,0
same,"Plant response rating, Lambsquarters",[13]; 125 g ai/ha,0
same,"Plant response rating, Lambsquarters",[13]; 250 g ai/ha,35
same,"Plant response rating, Buckwheat, Wild",[14]; 31 g ai/ha,0
same,"Plant response rating, Buckwheat, Wild",[14]; 62 g ai/ha,0
same,"Plant response rating, Buckwheat, Wild",[14]; 125 g ai/ha,0
same,"Plant response rating, Buckwheat, Wild",[14]; 250 g ai/ha,0
same,"Plant response rating, Field Violet",[15]; 31 g ai/ha,0
same,"Plant response rating, Field Violet",[15]; 62 g ai/ha,0
same,"Plant response rating, Field Violet",[15]; 125 g ai/ha,0
same,"Plant response rating, Field Violet",[15]; 250 g ai/ha,0
same,"Plant response rating, Foxtail, Green",[16]; 125 g ai/ha,20
"CC1(C)CC(S(=O)(=O)Cc2c(C(F)(F)F)nc3n(c2=O)CCCC3)=NO1 [Compound 8, 3-[[(4,5-dihydro-5,5-dimethyl-3-isoxazolyl)sulfonyl]methyl]-6,7,8,9-tetrahydro-2-(trifluoromethyl)-4H-pyrido[1,2-α]pyrimidin-4-one]","Plant response rating, Chickweed",[1]; 16 g ai/ha,0
same,"Plant response rating, Chickweed",[1]; 31 g ai/ha,0
same,"Plant response rating, Chickweed",[1]; 62 g ai/ha,0
same,"Plant response rating, Chickweed",[1]; 125 g ai/ha,40
same,"Plant response rating, Kochia",kochia (Kochia scoparia); 16 g ai/ha,0
same,"Plant response rating, Kochia",kochia (Kochia scoparia); 31 g ai/ha,0
same,"Plant response rating, Kochia",kochia (Kochia scoparia); 62 g ai/ha,0
same,"Plant response rating, Kochia",kochia (Kochia scoparia); 125 g ai/ha,0
same,"Plant response rating, Oilseed Rape",[2]; 16 g ai/ha,0
same,"Plant response rating, Oilseed Rape",[2]; 31 g ai/ha,0
same,"Plant response rating, Oilseed Rape",[2]; 62 g ai/ha,0
same,"Plant response rating, Oilseed Rape",[2]; 125 g ai/ha,0
same,"Plant response rating, Deadnettle",[3]; 16 g ai/ha,0
same,"Plant response rating, Deadnettle",[3]; 31 g ai/ha,0
same,"Plant response rating, Deadnettle",[3]; 62 g ai/ha,0
same,"Plant response rating, Deadnettle",[3]; 125 g ai/ha,0
same,"Plant response rating, Galium",[4]; 16 g ai/ha,0
same,"Plant response rating, Galium",[4]; 31 g ai/ha,0
same,"Plant response rating, Galium",[4]; 62 g ai/ha,0
same,"Plant response rating, Galium",[4]; 125 g ai/ha,0
same,"Plant response rating, Wheat, Spring",[5]; 16 g ai/ha,0
same,"Plant response rating, Wheat, Spring",[5]; 31 g ai/ha,0
same,"Plant response rating, Wheat, Spring",[5]; 62 g ai/ha,0
same,"Plant response rating, Wheat, Spring",[5]; 125 g ai/ha,0
same,"Plant response rating, Mustard, Wild",[7]; 16 g ai/ha,0
same,"Plant response rating, Mustard, Wild",[7]; 31 g ai/ha,0
same,"Plant response rating, Mustard, Wild",[7]; 62 g ai/ha,30
same,"Plant response rating, Mustard, Wild",[7]; 125 g ai/ha,100
same,"Plant response rating, Blackgrass",[8]; 16 g ai/ha,0
same,"Plant response rating, Blackgrass",[8]; 31 g ai/ha,0
same,"Plant response rating, Blackgrass",[8]; 62 g ai/ha,20
same,"Plant response rating, Blackgrass",[8]; 125 g ai/ha,35
same,"Plant response rating, Barley, Winter",[9]; 16 g ai/ha,0
same,"Plant response rating, Barley, Winter",[9]; 31 g ai/ha,0
same,"Plant response rating, Barley, Winter",[9]; 62 g ai/ha,0
same,"Plant response rating, Barley, Winter",[9]; 125 g ai/ha,0
same,"Plant response rating, Pigweed",[10]; 16 g ai/ha,0
same,"Plant response rating, Pigweed",[10]; 31 g ai/ha,0
same,"Plant response rating, Pigweed",[10]; 62 g ai/ha,0
same,"Plant response rating, Pigweed",[10]; 125 g ai/ha,0
same,"Plant response rating, Wheat, Winter",[11]; 16 g ai/ha,0
same,"Plant response rating, Wheat, Winter",[11]; 31 g ai/ha,0
same,"Plant response rating, Wheat, Winter",[11]; 62 g ai/ha,0
same,"Plant response rating, Wheat, Winter",[11]; 125 g ai/ha,0
same,"Plant response rating, Bluegrass",[12]; 16 g ai/ha,0
same,"Plant response rating, Bluegrass",[12]; 31 g ai/ha,0
same,"Plant response rating, Bluegrass",[12]; 62 g ai/ha,0
same,"Plant response rating, Bluegrass",[12]; 125 g ai/ha,0
same,"Plant response rating, Lambsquarters",[13]; 16 g ai/ha,0
same,"Plant response rating, Lambsquarters",[13]; 31 g ai/ha,0
same,"Plant response rating, Lambsquarters",[13]; 62 g ai/ha,0
same,"Plant response rating, Lambsquarters",[13]; 125 g ai/ha,0
same,"Plant response rating, Buckwheat, Wild",[14]; 16 g ai/ha,0
same,"Plant response rating, Buckwheat, Wild",[14]; 31 g ai/ha,0
same,"Plant response rating, Buckwheat, Wild",[14]; 62 g ai/ha,0
same,"Plant response rating, Field Violet",[15]; 16 g ai/ha,0
same,"Plant response rating, Field Violet",[15]; 31 g ai/ha,0
same,"Plant response rating, Field Violet",[15]; 62 g ai/ha,0
same,"Plant response rating, Field Violet",[15]; 125 g ai/ha,90
same,"Plant response rating, Foxtail, Green",[16]; 16 g ai/ha,0
same,"Plant response rating, Foxtail, Green",[16]; 31 g ai/ha,0
same,"Plant response rating, Foxtail, Green",[16]; 62 g ai/ha,15
same,"Plant response rating, Foxtail, Green",[16]; 125 g ai/ha,60
